The values below come from ChEMBL document CHEMBL1201862, “PubChem BioAssay data set” (2004).

Test systems include OVCAR-4; ACHN; SNB-19; M14; UO-31; NCI-H460; SN12C; COLO 205; HCT-15; OVCAR-5; HCT-116; PC-3; EKVX; T47D; DU-145; SK-OV-3; SW-620; MOLT-4; MDA-MB-231; MDA-N.
Holding throughout (assay): NCI tumour cell line growth inhibition, 48 h

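Step 1: Grow cells in 96-well plates. Step 2: Expose to compound for 48 hours at 5 concentrations. Step 3: Interpolate endpoints linearly; if unreached, use highest concentration. At the GI50, growth is halved.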 Active and inactive are the calls of the source. Cut-off read from the data, not from the text of the source: active = GI50 up to about 1.1 µM and inactive = higher. Where a SMILES comes first, the peptide text is derived from it.

Regarding `COC(=O)c1c([N+](=O)[O-])ncn1[C@H]1OC[C@@H](OC(C)=O)[C@@H](OC(C)=O)[C@@H]1OC(C)=O`, the GI50 with OVCAR-4, in the experiment on ACHN, in the experiment on SNB-19, in the experiment with M14, in the experiment on UO-31 and in the experiment with NCI-H460 was > 100 µM (inactive) throughout. Also, the GI50 in the experiment on SN12C is > 100 µM (inactive); with COLO 205, > 100 µM (inactive); in the experiment on HCT-15, > 100 µM; in the experiment on OVCAR-5, > 100 µM (inactive); with HCT-116, > 100 µM (inactive); in the experiment with PC-3, > 100 µM (inactive). In addition, the GI50 in the experiment on EKVX, with T47D, with DU-145, with SK-OV-3, in the experiment with SW-620 and in the experiment on MOLT-4 was > 100 µM (inactive) throughout. For the same molecule, the GI50 with MDA-MB-231 and in the experiment with MDA-N was > 100 µM (inactive) throughout.

Take `CC(C)c1ccc(/C=C2\CSCC3=C2N=C(S)NC3c2ccc(C(C)C)cc2)cc1` (stereo not given): the GI50 in the experiment on OVCAR-4 was > 100 µM (inactive); with ACHN, > 100 µM (inactive); in the experiment on SNB-19 it was > 100 µM (inactive); with M14, > 100 µM (inactive); in the experiment on UO-31, 70.6 µM (inactive); in the experiment on NCI-H460 it was > 100 µM (inactive). Moreover, the GI50 with SN12C is > 100 µM (inactive); in the experiment with COLO 205 it was > 100 µM (inactive); in the experiment on HCT-15, 89.5 µM; in the experiment on OVCAR-5, > 100 µM (inactive); in the experiment with HCT-116, 44.9 µM (inactive); in the experiment with PC-3, 28.9 µM (inactive). For the same molecule, the GI50 with EKVX was 61.8 µM (inactive); in the experiment with T47D, 80.4 µM (inactive); with DU-145 it was > 100 µM (inactive); in the experiment on SK-OV-3, > 100 µM (inactive); with SW-620, > 100 µM (inactive); in the experiment on MOLT-4 it was 29.6 µM (inactive). Moreover, the GI50 in the experiment with MDA-MB-231 and in the experiment with MDA-N was > 100 µM (inactive) each time.

On to `C[C@@H]1CC[C@@H]2[C@@H](C1)O[C@@H]([C@H](C)OCc1ccccc1)SC2(C)C`, for which the GI50 with OVCAR-4 was 28.3 µM (inactive); in the experiment with ACHN, 18.8 µM (inactive); in the experiment with SNB-19, 21.3 µM (inactive); in the experiment on M14, 16.8 µM (inactive); in the experiment on UO-31 it was 14.5 µM (inactive); in the experiment on NCI-H460, 20.7 µM (inactive). Besides, the GI50 in the experiment with SN12C is 18.7 µM (inactive); with COLO 205 it was 19.3 µM (inactive); in the experiment with HCT-15, 27.8 µM; with OVCAR-5 it was 16.3 µM (inactive); in the experiment with HCT-116, 14.7 µM (inactive); in the experiment with PC-3 it was 31.5 µM (inactive). The GI50 is 45 µM (inactive) in the experiment with EKVX; 15.7 µM (inactive) in the experiment on T47D; 37.3 µM (inactive) in the experiment on DU-145; 30.5 µM (inactive) in the experiment with SK-OV-3; 18.9 µM (inactive) with SW-620; 18.4 µM (inactive) in the experiment on MOLT-4. In addition, the figures for the GI50 in the experiment on MDA-MB-231 and with MDA-N were 19.7 µM (inactive) and 23.7 µM (inactive), respectively.

Regarding `COc1ccc(NC(=S)N/N=C(\c2ccccc2)c2ccccn2)cc1`, the GI50 is 0.7 µM (active) with OVCAR-4; < 0.027 µM (active) with ACHN; 2.84 µM (inactive) with SNB-19; 0.0117 µM (active) with M14; 0.132 µM (active) with UO-31; 0.0931 µM (active) in the experiment on NCI-H460. The GI50 in the experiment on SN12C is 0.052 µM (active); with COLO 205 it was < 0.01 µM (active); with HCT-15, < 0.01 µM; in the experiment with OVCAR-5, 0.0241 µM (active); in the experiment with HCT-116, < 0.01 µM (active); with PC-3 it was < 0.01 µM (active). Moreover, the GI50 in the experiment on EKVX was < 0.0543 µM (active); with T47D it was < 0.0317 µM (active); in the experiment on DU-145, 0.568 µM (active); in the experiment with SK-OV-3 it was 0.028 µM (active); in the experiment with SW-620, < 0.01 µM (active); in the experiment on MOLT-4, < 0.01 µM (active). Also, the GI50 in the experiment with MDA-MB-231 is < 0.01 µM (active); in the experiment on MDA-N it was 0.263 µM (active).

Turning to `CC(=O)NC(CS)C(=O)NC(CO)C(=O)NC(CO)C(=O)NC(Cc1c[nH]c2ccccc12)C(=O)N1CCCC1C(=O)NC(CO)C(=O)NC(Cc1c[nH]c2ccccc12)C(=O)NC(Cc1c[nH]cn1)C(=O)NC(CO)C(=O)NC(Cc1c[nH]c2ccccc12)C(=O)NCC(=O)NCC(=O)NC(CC(=O)O)C(=O)NC(CCC(N)=O)C(=O)NC(CCCCN)C(=O)NC(Cc1ccccc1)C(=O)NC(CCCNC(=N)N)C(=O)NC(CCCCN)C(N)=O` (stereo not given) (Ac-CSSWPSWHSWGGDQKFRK-NH2; configuration not given here), the GI50 with OVCAR-4, in the experiment on ACHN, in the experiment on SNB-19, in the experiment with M14, in the experiment on UO-31 and in the experiment on NCI-H460 was > 25 µM (inactive) in each case. In addition, the GI50 in the experiment with SN12C was > 25 µM (inactive); with COLO 205, > 25 µM (inactive); in the experiment on HCT-15 it was > 25 µM; with OVCAR-5, > 25 µM (inactive); in the experiment on HCT-116, > 25 µM (inactive); in the experiment on PC-3 it was > 25 µM (inactive). The GI50 with EKVX, in the experiment on T47D, with DU-145, with SK-OV-3, in the experiment with SW-620 and with MOLT-4 was > 25 µM (inactive) in each case. The GI50 in the experiment on MDA-MB-231 and in the experiment with MDA-N was > 25 µM (inactive) each time.
